Source: patent US11970474B2, “Substituted benzodiazoles and use thereof in therapy” (THOMAS HELLEDAYS STIFTELSE FÖR MEDICINSK FORSKNING, priority 2018, dated 2024)

Columns and labels:
[1] = system: BALB/c mice; experiment: Recruitment of neutrophils to mouse airways; type: in vivo; details: 25 mg/kg intraperitoneally; intranasal TNFα or lipopolysaccharide; lungs lavaged after 16 h
Protocol: Six- to 8-wk-old BALB/c mice (˜20 g; Harlan Sprague Dawley, San Diego, CA) were injected 25 mg/kg intraperitoneally 3 h before and at the time of intranasal TNF-α challenge essentially as described in Ba, Xueqing, et al., The Journal of Immunology, 192(5), 2384-94 (2014). To evaluate inflammation, bronchoalveolar lavage fluids (BALF) were collected 16 h after challenge, processed, cytospin slides were stained with Wright-Giemsa, and the number of neutrophils was counted. All experiments were performed according to the National Institutes of Health Guidelines for the Care and Use of Laboratory Animals.

[2] = system: MLE12 cells; experiment: Cell viability assay in MLE12 cells (resazurin); type: cell-based, mouse; details: Mus musculus, MLE12, 24 h, TNF-α 20 ng/ml, resazurin added after 24 hours culture
How it was run: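 MLE12 cells (7500 cells/well) were seeded onto 11-point duplicate compound dose-responses, with TNF-α (final 20 ng/ml) added after 1 hour at 37° C. After 24 hours, resazurin was added for 6 hours and resorufin fluorescence read (ex544 nm/em595 nm). EC50 values were calculated by curve fitting.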

[3] = system: THP1; experiment: Cell viability assay (resazurin); type: cell-based; details: Homo sapiens, THP-1, 120 h, Cancer, Acute Monocytic Leukemia, five day incubation
Protocol: (§1) A dilution series of compound or vehicle are transferred to 96-well plates. Cells are seeded into the plate (500-10,000 cells/well) in suitable media and incubated for five days in 5% CO2 at 37° C. Thereafter, resazurin (diluted in suitable medium or PBS) are added to a final concentration 10 μg/ml resazurin at 37° C. for 2-4 hours before measuring the fluorescence (Ex544/Em590), essentially as described (Riss, Terry L. et al., “Cell Viability Assays.” In Assay Guidance Manual, ed. G. Sitta Sittampalam, et al. Bethesda (Md.): Eli Lilly & Company and the National Center for Advancing Translational Sciences (2004) http://www.ncbi.nlm.nih.gov/books/NBK144065/).
(§2) The compounds to be tested are nano-dispensed in duplicate in 11 concentrations, directly in 384-well cell plates, with a final DMSO concentration<1%. Cells are seeded in cell plates, pre-dispensed with compounds (200-2500 cells/well in 50 μl). After three or five days culture in 5% CO2, 37° C., resazurin diluted in PBS is added, 10 μl/well, to a final concentration of 10 μg/ml and cells are incubated 2-4 hours before measuring fluorescence (Ex544/Em590), as described (ibid.). Results obtained for selected example compounds described herein on cancer- and non-transformed cell lines are provided in the table below (Table 3) and summarized in FIG. 1. Where indicated, combination indexes was measured with CompuSyn software (www.compusyn.com) by the method of Chou-Talalay (Chou, Ting-Chao., Cancer Research, 70(2), 440-46 (2010)).

[4] = system: SW1271; experiment: Cell viability assay (resazurin); type: cell-based; details: 120 h, Cancer, Small Cell Lung Carcinoma, five day incubation
Protocol: as §1, §2

[5] = system: Hec59 + Chr2; experiment: Cell viability assay (resazurin); type: cell-based; details: 120 h, Cancer, endometrioid adenocarcinoma, five day incubation
Protocol: as §1, §2

[6] = system: NB-4; experiment: Cell viability assay (resazurin); type: cell-based; details: Homo sapiens, 120 h, Cancer, acute promyelocytic leukemia, five day incubation
Protocol: as §1, §2

[7] = system: Hec59; experiment: Cell viability assay (resazurin); type: cell-based; details: 120 h, Cancer, endometrioid adenocarcinoma, five day incubation
Protocol: as §1, §2

[8] = system: K562; experiment: Cell viability assay (resazurin); type: cell-based; details: Homo sapiens, 120 h, Cancer, Chronic Myelogenous Leukemia, five day incubation
Protocol: as §1, §2

[9] = system: H460; experiment: Colony formation survival assay; type: cell-based; details: cancer cell line H460; 7-11 days
Protocol: (§3) Example compounds or vehicle are transferred to 6-well plates. Cell lines to be tested are seeded at a density of 200-500 cells/well in suitable media and allowed to grow for 7-11 days in at 5% CO2, 37° C. The medium is removed and replaced with 4% w/v methylene blue in methanol. Following extensive washes in tap water and air drying, […] with more than 50 […] are counted, as described in Franken, Nicolaas A. P., et al., Nature Protocols, 1(5), 2315-19 (2006).

[10] = system: ACHN; experiment: Colony formation survival assay; type: cell-based; details: cancer cell line ACHN; 7-11 days
Protocol: as §3

[11] = system: MEF Ogg1 (−/−); experiment: Cell viability assay (resazurin); type: cell-based; details: 120 h, Normal, mouse embryonic fibroblast, five day incubation
Protocol: A dilution series of compound or vehicle are transferred to 96-well plates. Cells are seeded into the plate (500-10,000 cells/well) in suitable media and incubated for five days in 5% CO2 at 37° C.
The compounds to be tested are nano-dispensed in duplicate in 11 concentrations, directly in 384-well cell plates, with a final DMSO concentration<1%.

[12] = system: MLE-12 cells; experiment: Pro-inflammatory gene regulation induced by TNFα; type: cell-based, mouse; details: 20 ng/ml TNFα, 5 μM compound
Protocol: MLE-12 cells are maintained in suitable medium and treated with vehicle or 5 μM experimental compound for 48 h before stimulation with 20 ng/ml TNFα for 30 minutes. RNA is extracted and reverse-transcribed, followed by quantitative PCR evaluation of a panel of pro-inflammatory regulators (SABiosciences) essentially as described in Ba, Xueqing, et al., The Journal of Immunology, 192(5), 2384-94 (2014).

SMILES: O=C(Nc1ccc(I)cc1)N1CCC(n2c(=O)[nH]c3c(Br)cccc32)CC1 [Example 13, 4-(4-Bromo-2-oxo-2,3-dihydro-1H-1,3-benzodiazol-1-yl)-N-(4-iodophenyl)piperidine-1-carboxamide]
- recruitment of neutrophils to mouse airways [1]: reduces recruitment of neutrophils
- IC50 [2]: 7.67 µM
- EC50 [3]: 23 µM
- EC50 [4]: 22 µM
- EC50 [5]: 16 µM
- EC50 [6]: 5 µM
- EC50 [7]: 17 µM
- EC50 [8]: 20 µM
- colony formation [9]: inhibits colony formation
- colony formation [10]: inhibits colony formation
- EC50 [11]: 48 µM
- pro-inflammatory gene regulation induced by the cytokine TNFα [12]: reduces pro-inflammatory gene regulation

SMILES: O=C(Nc1ccc(Cl)c(Cl)c1)N1CCC(n2c(=O)[nH]c3c(-c4ccc(CO)nc4)cccc32)CC1 [Example 28, N-(3,4-dichlorophenyl)-4-{4-[6-(hydroxymethyl)pyridin-3-yl]-2-oxo-2,3-dihydro-1H-1,3-benzodiazol-1-yl}piperidine-1-carboxamide]
- IC50 [2]: 7.18 µM
- EC50 [3]: 19 µM
- EC50 [4]: 25 µM
- EC50 [5]: 17 µM
- EC50 [6]: 11 µM
- EC50 [7]: 11 µM
- EC50 [8]: 21 µM
- EC50 [11]: 46 µM

SMILES: Cc1cc(NC(=O)N2CCC(n3c(=O)[nH]c4c(Br)cccc43)CC2)ccc1I [Example 50, 4-(4-Bromo-2-oxo-2,3-dihydro-1H-1,3-benzodiazol-1-yl)-N-(4-iodo-3-methylphenyl)piperidine-1-carboxamide]
- IC50 [2]: 7.23 µM
- EC50 [11]: 34 µM
